Where “and” joins values, the source holds several entries; their conditions need not be identical. Equal entries are not always repeated.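 Compound exposure: 48 hours, 5 concentrations, 96-well plates. GI50 is the concentration that inhibits growth by half. At the TGI there is no net growth.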
Columns and labels:
Test in all cases: NCI-60 cell line screen, 48 h
RXF 393 renal = tested on: RXF 393 renal
A549 NSCLC = tested on: A549 NSCLC
SNB-19 CNS = tested on: SNB-19 CNS
COLO 205 colon = tested on: COLO 205 colon
NCI-H460 lung = tested on: NCI-H460 lung
OVCAR-3 ovarian = tested on: OVCAR-3 ovarian
SK-MEL-2 melanoma = tested on: SK-MEL-2 melanoma
SF-295 CNS = tested on: SF-295 CNS
HOP-62 NSCLC = tested on: HOP-62 NSCLC
OVCAR-4 ovarian = tested on: OVCAR-4 ovarian

Compound	TGI (RXF 393 renal)	TGI (A549 NSCLC)	TGI (SNB-19 CNS)	TGI (COLO 205 colon)	TGI (NCI-H460 lung)	TGI (OVCAR-3 ovarian)	TGI (SK-MEL-2 melanoma)	TGI (SF-295 CNS)	TGI (HOP-62 NSCLC)	TGI (OVCAR-4 ovarian)	GI50 (RXF 393 renal)	GI50 (A549 NSCLC)	GI50 (SNB-19 CNS)	GI50 (COLO 205 colon)	GI50 (NCI-H460 lung)	GI50 (OVCAR-3 ovarian)	GI50 (SF-295 CNS)	GI50 (HOP-62 NSCLC)	GI50 (OVCAR-4 ovarian) [µM]	GI50 (SK-MEL-2 melanoma)
COc1cc(C(C)c2cc3c(cc2OCCNC(=O)COc2cc4c(cc2C(C)c2cc(OC)c(OC)c(OC)c2)OCO4)OCO3)cc(OC)c1OC (stereo unspecified)	> 100 µM	> 100 µM	> 100 µM	> 100 µM	49 µM	> 100 µM	> 100 µM	> 100 µM	> 100 µM	> 100 µM										
C1CN(P2(N3CC3)=NP(N3CC3)(N3CC3)=NP(N3CC3)(N3CC3)=N2)CCO1 (stereo unspecified)	> 100 µM	> 100 µM	> 100 µM	> 100 µM	> 100 µM	> 100 µM	> 100 µM	> 100 µM	> 83.4 µM	> 100 µM										
CC1=NOC(=O)/C1=C/c1ccc([N+](=O)[O-])cc1	> 100 µM	> 100 µM	> 100 µM	> 100 µM	> 100 µM	> 100 µM	> 100 µM	> 100 µM	> 100 µM	> 100 µM										
CO[C@H]1C[C@](C)(O)Cc2cc3c(c(O)c21)C(=O)c1c(O)cc2c(c1C3=O)O[C@@H]1O[C@@]2(C)[C@H](O)[C@@H](N(C)C)[C@@H]1O	4.01 µM and 4.21 µM	1.61 µM and 3.02 µM	5.95 µM and 7.5 µM	2.97 µM and 8.57 µM	1.47 µM and 2.1 µM	4.03 µM and 8.09 µM	5.09 µM and 5.82 µM	1.96 µM and 2.14 µM	2.57 µM and 1.5 µM	3.46 µM and 12.6 µM	1.9 µM	0.139 µM	0.578 µM	1.46 µM	0.035 µM	1.92 µM	0.513 µM	0.48 µM	1.87	
Cc1c(N)nc(C(CC(N)=O)NCC(N)C(N)=O)nc1C(=O)NC(C(=O)NC(C)C(O)C(C)C(=O)NC(C(=O)NCCc1nc(-c2nc(C(=O)NCCCNC(C)c3ccccc3)cs2)cs1)C(C)O)C(OC1OC(CO)C(O)C(O)C1OC1OC(CO)C(O)C(OC(N)=O)C1O)c1cnc[nH]1 (stereo unspecified)	2.82 µM	50 µM and > 100 µM	39.7 µM and > 100 µM	50 µM and > 100 µM		38.3 µM and > 100 µM	30.6 µM and > 100 µM	5.22 µM and 3.46 µM	1.07 µM and 3.01 µM	33.7 µM and > 100 µM		0.63 µM	14.5 µM	32.6 µM	0.391 µM	79.2 µM	0.115 µM	0.0845 µM	81.5	66.5 µM
CCCCCCCC/C=C1\CCC(CN2CCOCC2)C1=O (stereo unspecified)	25.3 µM	24.7 µM	24.6 µM	17.3 µM	39.4 µM	14.8 µM	28.8 µM	28.2 µM	30 µM	31 µM										
COc1ccc(/C(C#N)=C/c2cc(OC)c(OC)c(OC)c2)cc1	> 100 µM	> 100 µM	> 100 µM	64.8 µM	> 100 µM	> 100 µM	82.2 µM	41.9 µM	> 100 µM	> 100 µM	20.6 µM	23.6 µM	28 µM	20.1 µM	29.6 µM	33.8 µM	15 µM	34.3 µM	38.4	21.9 µM
CC(C)c1cccc(O)c(=O)c1		> 75 µg/mL and > 74.5 µM					32.4 µg/mL and 95.7 µM	71.6 µg/mL and > 100 µM	> 75 µg/mL and > 100 µM	> 100 µM	0.116 µg/mL	2.42 µg/mL	1.2 µg/mL	1.21 µg/mL	0.31 µg/mL	2.5 µg/mL	2.52 µg/mL	5.57 µg/mL		6.86 µg/mL

From PubChem BioAssay (NCI)
